Results published in patent US20240124417A1, “COMPOUNDS USEFUL AS IMMUNOMODULATORS” (Bristol-Myers Squibb Company, priority 2019, published 2024).

Biological target: T1, PD-1/PD-L1 (Homo sapiens, UniProt Q9NZQ7)
T1 construct: TVMV protease site linker (C); made in house; host or cells: HEK293T cells
Experiment: PD-1/PD-L1 Homogenous Time-Resolved Fluorescence (HTRF) binding assay
Conditions: PD-L1-His 10 nM, PD-1-Ig 20 nM
Summary of the method: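 Inhibitors pre-incubated 15 min with PD-L1-His extracellular domain (10 nM final) in dPBS with 0.1% BSA and 0.05% Tween-20, then PD-1-Ig (20 nM final) added for a further 15 min. Read-out by HTRF with europium cryptate anti-Ig (1 nM) and APC anti-His (20 nM). Related pairs: PD-1-Ig/PD-L2-His (20/5 nM), CD80-His/PD-L1-Ig (100/10 nM).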

T1 sequence (Q9NZQ7 18-239): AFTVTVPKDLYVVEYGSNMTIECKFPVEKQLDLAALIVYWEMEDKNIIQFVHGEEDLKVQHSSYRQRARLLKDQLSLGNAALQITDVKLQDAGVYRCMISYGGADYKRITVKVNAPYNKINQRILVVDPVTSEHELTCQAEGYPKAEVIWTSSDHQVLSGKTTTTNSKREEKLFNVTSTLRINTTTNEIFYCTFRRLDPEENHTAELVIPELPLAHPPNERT

Structure (SMILES)	IC50
Cc1c(COc2cc(OCc3cncc(C#N)c3)c(CNCc3cc[nH]n3)cc2Cl)cccc1-c1cccc(OCCCN2CC[C@@H](O)C2)c1C [Example 2001, (R)-5-((2-((((1H-pyrazol-3-yl)methyl)amino)methyl)-4-chloro-5-((3′-(3-(3-hydroxypyrrolidin-1-yl)propoxy)-2,2′-dimethyl-[1,1′-biphenyl]-3-yl)methoxy)phenoxy)methyl)nicotinonitrile]	0.2 nM
Cc1c(COc2cc(OCc3cncc(C#N)c3)c(CNCc3ncn[nH]3)cc2Cl)cccc1-c1cccc(OCCCN2CC[C@@H](O)C2)c1C [Example 2002, (R)-5-((2-((((1H-1,2,4-triazol-5-yl)methyl)amino)methyl)-4-chloro-5-((3′-(3-(3-hydroxypyrrolidin-1-yl)propoxy)-2,2′-dimethyl-[1,1′-biphenyl]-3-yl)methoxy)phenoxy)methyl)nicotinonitrile]	9.3 nM
Cc1c(COc2cc(OCc3cncc(C#N)c3)c(CNCc3c[nH]cn3)cc2Cl)cccc1-c1cccc(OCCCN2CC[C@@H](O)C2)c1C [Example 2003, (R)-5-((2-((((1H-imidazol-4-yl)methyl)amino)methyl)-4-chloro-5-((3′-(3-(3-hydroxypyrrolidin-1-yl)propoxy)-2,2′-dimethyl-[1,1′-biphenyl]-3-yl)methoxy)phenoxy)methyl)nicotinonitrile]	7.2 nM
Cc1c(COc2cc(OCc3cncc(C#N)c3)c(CNCc3ncc[nH]3)cc2Cl)cccc1-c1cccc(OCCCN2CC[C@@H](O)C2)c1C [Example 2004, (R)-5-((2-((((1H-imidazol-2-yl)methyl)amino)methyl)-4-chloro-5-((3′-(3-(3-hydroxypyrrolidin-1-yl)propoxy)-2,2′-dimethyl-[1,1′-biphenyl]-3-yl)methoxy)phenoxy)methyl)nicotinonitrile]	4.1 nM
Cc1c(COc2cc(OCc3cncc(C#N)c3)c(CN(C)Cc3cc[nH]n3)cc2Cl)cccc1-c1cccc(OCCCN2CC[C@@H](O)C2)c1C [Example 2005, (R)-5-((2-((((1H-pyrazol-3-yl)methyl)(methyl)amino)methyl)-4-chloro-5-((3′-(3-(3-hydroxypyrrolidin-1-yl)propoxy)-2,2′-dimethyl-[1,1′-biphenyl]-3-yl)methoxy)phenoxy)methyl)nicotinonitrile]	2.5 nM
Cc1c(COc2cc(OCc3cncc(C#N)c3)c(CN(C)Cc3ncn[nH]3)cc2Cl)cccc1-c1cccc(OCCCN2CC[C@@H](O)C2)c1C [Example 2006, (R)-5-((2-((((1H-1,2,4-triazol-5-yl)methyl)(methyl)amino)methyl)-4-chloro-5-((3′-(3-(3-hydroxypyrrolidin-1-yl)propoxy)-2,2′-dimethyl-[1,1′-biphenyl]-3-yl)methoxy)phenoxy)methyl)nicotinonitrile]	0.2 nM
Cc1c(COc2cc(OCc3cncc(C#N)c3)c(CN(C)Cc3c[nH]cn3)cc2Cl)cccc1-c1cccc(OCCCN2CC[C@@H](O)C2)c1C [Example 2007, (R)-5-((2-((((1H-imidazol-4-yl)methyl)(methyl)amino)methyl)-4-chloro-5-((3′-(3-(3-hydroxypyrrolidin-1-yl)propoxy)-2,2′-dimethyl-[1,1′-biphenyl]-3-yl)methoxy)phenoxy)methyl)nicotinonitrile]	0.6 nM
Cc1c(COc2cc(OCc3cncc(C#N)c3)c(CN(C)Cc3ncc[nH]3)cc2Cl)cccc1-c1cccc(OCCCN2CC[C@@H](O)C2)c1C [Example 2008, (R)-5-((2-((((1H-imidazol-2-yl)methyl)(methyl)amino)methyl)-4-chloro-5-((3′-(3-(3-hydroxypyrrolidin-1-yl)propoxy)-2,2′-dimethyl-[1,1′-biphenyl]-3-yl)methoxy)phenoxy)methyl)nicotinonitrile]	0.5 nM
Cc1c(COc2cc(OCc3cncc(C#N)c3)c(CNCc3ncn[nH]3)cc2Cl)cccc1-c1cccc(OCCCN2CCC(O)(CO)CC2)c1Cl [Example 2009, 5-((2-((((1H-1,2,4-triazol-5-yl)methyl)amino)methyl)-4-chloro-5-((2′-chloro-3′-(3-(4-hydroxy-4-(hydroxymethyl)piperidin-1-yl)propoxy)-2-methyl-[1,1′-biphenyl]-3-yl)methoxy)phenoxy)methyl)nicotinonitrile]	2.1 nM
Cc1c(COc2cc(OCc3cncc(C#N)c3)c(CNCc3c[nH]cn3)cc2Cl)cccc1-c1cccc(OCCCN2CCC(O)(CO)CC2)c1Cl [Example 2010, 5-((2-((((1H-imidazol-4-yl)methyl)amino)methyl)-4-chloro-5-((2′-chloro-3′-(3-(4-hydroxy-4-(hydroxymethyl)piperidin-1-yl)propoxy)-2-methyl-[1,1′-biphenyl]-3-yl)methoxy)phenoxy)methyl)nicotinonitrile]	2.1 nM
Cc1c(COc2cc(OCc3cncc(C#N)c3)c(CNCc3ncc[nH]3)cc2Cl)cccc1-c1cccc(OCCCN2CCC(O)(CO)CC2)c1Cl [Example 2011, 5-((2-((((1H-imidazol-2-yl)methyl)amino)methyl)-4-chloro-5-((2′-chloro-3′-(3-(4-hydroxy-4-(hydroxymethyl)piperidin-1-yl)propoxy)-2-methyl-[1,1′-biphenyl]-3-yl)methoxy)phenoxy)methyl)nicotinonitrile]	2.8 nM
Cc1c(COc2cc(OCc3cncc(C#N)c3)c(CNCc3cc[nH]n3)cc2Cl)cccc1-c1cccc(OCCCN2CCC(O)(CO)CC2)c1Cl [Example 2012, 5-((2-((((1H-pyrazol-3-yl)methyl)amino)methyl)-4-chloro-5-((2′-chloro-3′-(3-(4-hydroxy-4-(hydroxymethyl)piperidin-1-yl)propoxy)-2-methyl-[1,1′-biphenyl]-3-yl)methoxy)phenoxy)methyl)nicotinonitrile]	2.6 nM
Cc1c(COc2cc(OCc3cncc(C#N)c3)c(CN(C)Cc3ncn[nH]3)cc2Cl)cccc1-c1cccc(OCCCN2CCC(O)(CO)CC2)c1Cl [Example 2013, 5-((2-((((1H-1,2,4-triazol-5-yl)methyl)(methyl)amino)methyl)-4-chloro-5-((2′-chloro-3′-(3-(4-hydroxy-4-(hydroxymethyl)piperidin-1-yl)propoxy)-2-methyl-[1,1′-biphenyl]-3-yl)methoxy)phenoxy)methyl)nicotinonitrile]	1.1 nM
Cc1c(COc2cc(OCc3cncc(C#N)c3)c(CN(C)Cc3c[nH]cn3)cc2Cl)cccc1-c1cccc(OCCCN2CCC(O)(CO)CC2)c1Cl [Example 2014, 5-((2-((((1H-imidazol-4-yl)methyl)(methyl)amino)methyl)-4-chloro-5-((2′-chloro-3′-(3-(4-hydroxy-4-(hydroxymethyl)piperidin-1-yl)propoxy)-2-methyl-[1,1′-biphenyl]-3-yl)methoxy)phenoxy)methyl)nicotinonitrile]	0.5 nM
Cc1c(COc2cc(OCc3cncc(C#N)c3)c(CN(C)Cc3ncc[nH]3)cc2Cl)cccc1-c1cccc(OCCCN2CCC(O)(CO)CC2)c1Cl [Example 2015, 5-((2-((((1H-imidazol-2-yl)methyl)(methyl)amino)methyl)-4-chloro-5-((2′-chloro-3′-(3-(4-hydroxy-4-(hydroxymethyl)piperidin-1-yl)propoxy)-2-methyl-[1,1′-biphenyl]-3-yl)methoxy)phenoxy)methyl)nicotinonitrile]	3.1 nM
